Laboratory results: ChEMBL document CHEMBL1133151 (2000)

What was measured:
[1] = biological target: T1, Voltage-gated L-type calcium channel (Rattus norvegicus, UniProt P22002+Q02485+P27732); experiment: Inhibition of L-type [Ca2+] channel (VSCC) in rat A7r5 vascular smooth muscle cells
[2] = biological target: T2, Voltage-dependent N-type calcium channel subunit alpha-1B (Homo sapiens, UniProt Q00975); experiment: Inhibition of N-type calcium channel (VSCC) in IMR-32 at 10 uM
Target sequence in this assay (Q00975 whole entry): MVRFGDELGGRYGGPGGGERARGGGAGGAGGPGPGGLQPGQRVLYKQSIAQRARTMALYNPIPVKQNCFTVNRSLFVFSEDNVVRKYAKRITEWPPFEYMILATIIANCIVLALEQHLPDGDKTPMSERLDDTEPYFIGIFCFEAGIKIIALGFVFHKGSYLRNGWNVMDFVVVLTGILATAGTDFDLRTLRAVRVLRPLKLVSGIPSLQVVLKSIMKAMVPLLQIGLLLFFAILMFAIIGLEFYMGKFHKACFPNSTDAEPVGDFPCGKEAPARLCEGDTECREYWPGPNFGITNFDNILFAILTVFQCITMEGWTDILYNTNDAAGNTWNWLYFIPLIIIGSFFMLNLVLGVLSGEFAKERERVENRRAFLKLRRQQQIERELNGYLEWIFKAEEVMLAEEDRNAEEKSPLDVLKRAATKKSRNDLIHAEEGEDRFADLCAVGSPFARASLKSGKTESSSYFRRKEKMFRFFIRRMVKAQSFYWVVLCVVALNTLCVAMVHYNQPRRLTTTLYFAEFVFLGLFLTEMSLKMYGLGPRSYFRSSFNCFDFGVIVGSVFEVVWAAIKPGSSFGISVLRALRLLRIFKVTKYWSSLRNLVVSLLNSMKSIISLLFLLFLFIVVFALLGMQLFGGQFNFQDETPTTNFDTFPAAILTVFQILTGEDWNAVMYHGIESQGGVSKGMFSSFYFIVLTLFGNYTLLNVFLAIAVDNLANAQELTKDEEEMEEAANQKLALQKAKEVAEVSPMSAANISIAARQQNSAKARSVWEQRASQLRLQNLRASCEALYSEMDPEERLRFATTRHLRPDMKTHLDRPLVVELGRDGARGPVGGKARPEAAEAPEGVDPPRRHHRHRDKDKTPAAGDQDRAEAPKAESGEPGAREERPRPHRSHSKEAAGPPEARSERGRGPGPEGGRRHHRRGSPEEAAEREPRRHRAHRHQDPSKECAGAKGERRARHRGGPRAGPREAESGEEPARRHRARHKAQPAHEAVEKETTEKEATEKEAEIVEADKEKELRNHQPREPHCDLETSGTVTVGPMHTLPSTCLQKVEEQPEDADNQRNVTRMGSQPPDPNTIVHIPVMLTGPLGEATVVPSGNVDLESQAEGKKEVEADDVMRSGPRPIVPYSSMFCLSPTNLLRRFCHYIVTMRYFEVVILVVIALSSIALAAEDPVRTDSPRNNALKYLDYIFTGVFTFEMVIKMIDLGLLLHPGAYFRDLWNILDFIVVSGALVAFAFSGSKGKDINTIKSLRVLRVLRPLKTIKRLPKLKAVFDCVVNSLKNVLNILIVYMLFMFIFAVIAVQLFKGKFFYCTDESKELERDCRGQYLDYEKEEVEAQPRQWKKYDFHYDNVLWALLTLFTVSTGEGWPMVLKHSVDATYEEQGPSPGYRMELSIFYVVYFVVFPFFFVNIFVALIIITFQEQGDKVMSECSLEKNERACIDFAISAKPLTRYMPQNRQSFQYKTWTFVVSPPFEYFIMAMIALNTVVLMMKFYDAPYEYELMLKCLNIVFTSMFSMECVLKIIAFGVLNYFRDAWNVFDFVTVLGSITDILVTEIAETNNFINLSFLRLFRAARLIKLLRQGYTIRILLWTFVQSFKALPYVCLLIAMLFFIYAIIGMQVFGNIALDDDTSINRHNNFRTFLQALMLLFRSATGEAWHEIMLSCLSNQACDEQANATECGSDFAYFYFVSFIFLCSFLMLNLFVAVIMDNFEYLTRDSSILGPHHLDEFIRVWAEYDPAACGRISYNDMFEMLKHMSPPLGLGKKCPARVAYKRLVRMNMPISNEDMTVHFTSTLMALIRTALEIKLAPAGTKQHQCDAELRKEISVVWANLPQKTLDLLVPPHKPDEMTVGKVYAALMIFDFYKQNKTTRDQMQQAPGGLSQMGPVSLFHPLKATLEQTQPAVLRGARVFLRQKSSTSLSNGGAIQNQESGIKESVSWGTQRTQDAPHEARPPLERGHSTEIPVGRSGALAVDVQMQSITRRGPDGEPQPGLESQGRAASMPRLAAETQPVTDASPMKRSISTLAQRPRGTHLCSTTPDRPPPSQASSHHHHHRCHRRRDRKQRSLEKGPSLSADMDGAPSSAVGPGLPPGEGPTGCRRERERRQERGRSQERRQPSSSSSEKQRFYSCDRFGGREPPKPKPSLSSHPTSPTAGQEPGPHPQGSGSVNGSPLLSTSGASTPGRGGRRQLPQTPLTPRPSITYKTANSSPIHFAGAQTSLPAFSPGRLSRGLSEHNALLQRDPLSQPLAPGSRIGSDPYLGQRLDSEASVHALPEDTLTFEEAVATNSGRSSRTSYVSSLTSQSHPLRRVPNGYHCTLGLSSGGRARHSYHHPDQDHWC

[3] = biological target: T1, Voltage-gated L-type calcium channel; experiment: Inhibition of L-type [Ca2+] channel (VSCC) in rat A7r5 vascular smooth muscle cells; remark: listed apart in the source
[4] = biological target: T2, Voltage-dependent N-type calcium channel subunit alpha-1B; experiment: Inhibition of N-type calcium channel (VSCC) in IMR-32 at 10 uM
Target sequence in this assay (Q00975 whole entry, looked up): as the sequence (Q00975 whole entry) above

| Compound | IC50 [1] | IC50 [2] | Inhibition [3] | inhibition [4] |
| --- | --- | --- | --- | --- |
| CC(C)Oc1cc(OCCc2ccc(C(=N)N)cc2)cc(OCc2ccccc2CCc2ccc(O)cc2)c1 | 4.2 µM | 3.3 µM | – | – |
| CC(C)Oc1cc(OCCc2ccc(C(=N)N)cc2)cc(OCc2ccccc2CCc2cccc(O)c2)c1 | 3 µM | 2.7 µM | – | – |
| CC(C)CCOc1cc(OCCCc2ccccc2OCCCc2ccc(O)cc2)cc(OCCc2ccc(C(=N)N)cc2)c1 | – | – | 69% | 19% |
